“Also recorded” adds a separate entry of the source.

Data set [1] in a line: Liver microsome stability (1 h incubation). Type of data set: in vitro ADME. Conditions: after 1 h.
Data set [2] concerns lean and DIO C57BL/6J mice. Kind of data set: Oral glucose tolerance test (OGTT). Conditions: lean (80 mg/kg) and DIO (60 mg/kg) mice, single i.p. dose 30 min before glucose gavage 3.0 g/kg, vs vehicle. The class given is in vivo, mouse. The procedure:
Wild-type lean C57BL/6J and diet-induced obese (DIO) C57BL/6J age-matched male mice were purchased from Jackson Laboratories, and used at ages 14-16, and 24-26 weeks respectively (>20 weeks of high-fat diet for the DIO mice). GCGR^/ mice were bred from heterozygous mice and used between 11 and 17 weeks. […] Blood glucose was measured from tail nicks using AccuCheck (Aviva) meters.
In vivo studies, general information. Wild-type C57BL/6J and diet-induced obese (DIO) C57BL/6J age-matched male adult mice were purchased from Jackson Laboratories. The age range was 13 to 15 weeks for lean mice, and 24 to 26 weeks for DIO mice. All animals were individually housed on a 14-h light, 10-h dark schedule at the Biology Research Infrastructure (BRI), Harvard University. Cage enrichment included cotton bedding and a red plastic hut. […]
Glucose tolerance tests GTT and blood glucose measurements. […] Blood glucose was measured using AccuCheck® meters (Aviva) from blood droplets obtained from a small nick at the tip of the tail, at timepoints −45, 0, 15, 30, 45, 60, 90 and 120 min with reference to the time of glucose injection. The area of the blood glucose response profile curve corresponding to each animal was calculated by the trapezoid method^17, using as reference each individual baseline blood glucose measurement prior to glucose administration (t=0). […]

In data set [3] the test system is DIO mice. In words: Plasma hormone measurements and liver RT-PCR post-IPGTT. The class given is in vivo, mouse. The method, then: Trunk blood was obtained for plasma hormone measurements using the Multiplexed Mouse Metabolic Hormone panel (Milliplex, EMD Millipore) on a Luminex FlexMap 3D instrument. Gastric emptying was measured by dissection of stomachs 30 min after an oral glucose bolus (3.0 g/kg, 10 mL/kg) in sterile saline containing 0.1 mg/mL phenol red.
Total RNA was isolated from liver samples (˜100 mg) using TRIzol (Invitrogen) and purified using an RNeasy® kit (Qiagen) and on-column DNAse treatment (Qiagen). Reverse transcription was performed with oligo(dT) primers using SuperScript III (Life Technologies). RT-PCR was performed with two primer pairs per target normalized against tubulin and beta-actin transcripts (ΔΔCT method).
(§1) Blood collection and plasma hormone measurements. Blood was collected in EDTA-coated tubes (BD Microtainer®) from trunk bleeding (˜500 μL) after CO2-euthanasia for all hormone assays. The plasma was immediately separated from red blood cells by centrifugation 10 min at 1800 g, aliquoted, frozen over dry ice and stored at −80° C. […] Values are reported as mean±S.E.M. Statistics were performed using a two-tail Student's t-test, and significance levels shown in the figures are *p<0.05 versus vehicle control group or **p<0.01 versus vehicle control group.
(§2) RT-PCR analysis of liver gluconeogenesis markers phosphoenolpyruvate carboxykinase (PEPCK) and glucose-6-phosphatase (G6Pase). Total RNA was isolated from liver samples (˜100 mg) using TRIzol® reagent (Invitrogen, 1 mL/100 mg sample), followed by spin-column purification (RNeasy® kit, Qiagen) and on-column DNAse treatment (Qiagen) according to the manufacturer's instructions. RNA concentrations were determined by UV spectrophotometry (NanoDrop). One microgram of total RNA was used for reverse transcription with oligo(dT) primers (SuperScript® III First-Strand Synthesis SuperMix, Life Technologies) according to the manufacturer's instructions. Quantitative PCR reactions included 1 μL of cDNA diluted 1:100, 0.4 μM primers, 2× SYBR Green PCR Master Mix (Invitrogen) in 25 μL total volume, and were read out by a CFX96TM Real-Time PCR Detection System (BioRad). Transcript levels were determined using two known primer pairs^18,19 for each gene of interest (Table 6), which were normalized against tubulin and beta-actin transcripts (ΔΔCT method), and expressed relative to the lowest sample. Duplicate control assays without reverse transcriptase treatment were run for each RNA preparation and primer set used. Statistics were performed using a two-tail Student's t-test, and significance levels shown in the figures are *p<0.05 versus vehicle control group or **p<0.01 versus vehicle control group.

Data set [4] concerns Wild-type mice. In words: Pyruvate tolerance test (PTT). The class given is in vivo, mouse. Conditions: vs controls. The procedure: as §1, §2
The mark [5] stands for this setting: DIO liver, 135 min post-IPGTT, vs vehicle.
The mark [6] stands for this setting: DIO mice, 20 minutes post-glucose injection, vs vehicle.

For the molecule `NCCCC[C@@H]1NC(=O)/C=C/C(=O)N[C@H](C(N)=O)CCCCNC(=O)[C@@H](Cc2ccc(C(=O)c3ccccc3)cc2)NC(=O)[C@H](CC2CCCCC2)NC1=O` [Compound 6bK], the “remaining after incubation with liver microsome preparations” value in data set [1] was found to be 78%. Also, in data set [2], the oral glucose tolerance entry was “significantly improved; also recorded: improved glucose tolerance”. In data set [3] (setting [5]), the “higher glucose-6-phosphatease (G6Pase) transcript levels” value is reported as 50% and the “lower phosphoenolpyruvate carboxykinase (PEPCK) transcript levels” value is reported as 30%. In addition, in data set [3] (DIO mice post-IPGTT, vs control), the “liver G6Pase expression” value was “elevated”. Also, in data set [3] (setting [6]), the plasma amylin levels result is given as “elevated”, the plasma glucagon levels entry is given as “unchanged” and the plasma insulin levels entry is on record as “elevated”. In addition, in data set [3] (DIO mice, 130 min post-injection, hyperglycemic rebound), the plasma glucagon levels entry is recorded as “above 200 pg/mL”. For the same molecule, the plasma glucagon entry in data set [4] (60 min post-PTT, pyruvate 2.0 g/kg i.p.) was “significantly elevated”. In data set [4] (60 min post-PTT), the “expression of liver gluconeogenic markers” value is “increased; also recorded: elevated” and the plasma insulin levels result is “similar”. Further, the “blood glucose during the PTT” value in data set [4] (pyruvate 2.0 g/kg i.p.) is “significantly lower”.
